Among the data in patent publication US20260138988A1, “Spiropyrrolidine Derived Antiviral Agents” (Enanta Pharmaceuticals, Inc., priority 2021, published 2026) are IC50 and EC50 values, retold here.

Assay [1] addresses SARS-CoV-2 3CL-protease (Severe acute respiratory syndrome coronavirus 2, UniProt P0DTD1). The assay is described as follows: SARS-CoV-2 3C-Like (3CL) Protease Fluorescence Assay (FRET). Conditions: test compounds 0-10 μM, duplicate. Type of assay: biochemical.
Assay [2] concerns 229E human corona virus (hCoV). Description: 229E live virus assay (MRC-5 cells, CPE, ATPlite readout). The format is cell-based, hCoV-229E. The following applies: Human coronavirus 229E, MRC5, 144 h, read-out: 229E EC50. For orientation: Cellular ATP, detected with luciferase, serves as a proxy for viable cell number.
Where [3] appears, read: SARS-CoV-2 3CL-protease 10 nM, read-out: IC50.
Where [4] appears, read: hCoV-229E in MRC-5 cells, MOI 0.05, 6 days at 34° C., ATPlite, run in duplicate.
Where [5] appears, read: IC50, SARS-CoV-2 3CL-protease 10 nM.

The structures appear in SMILES notation. Read-outs that look alike come from different tables or passages of the source.

`C[C@H](NC(=O)c1ccc(OC(F)(F)F)cc1)C(=O)N(C)[C@@H](CC(C)(C)C)C(=O)N1C[C@]2(C[C@H]1C#N)C(=O)Nc1ccccc12` [Example 153]: the half-maximal inhibitory concentration (IC50) – broadly, the concentration at which inhibition is half-maximal – in assay [1] (setting [3]) was less than 100 nM. Also, the EC50 (usually the concentration that produces a half-maximal response) in assay [2] (setting [4]) is less than 100 nM. As to `CC(C)C[C@@H](C(=O)N1C[C@]2(C[C@H]1C#N)C(=O)Nc1ccccc12)N(C)C(=O)[C@H](C)NC(=O)c1ccc(-c2ccc(F)cc2)cc1F` [Example 149], the IC50 in assay [1] (setting [3]) was less than 100 nM. Besides, the EC50 in assay [2] (setting [4]) is less than 100 nM. Turning to `C[C@@H](C(=O)N(C)[C@@H](CC(C)(C)C)C(=O)N1C[C@]2(C[C@H]1C#N)C(=O)Nc1ccccc12)N1CCCC1=O` [Example 152], the IC50 in assay [1] (setting [3]) was 100 to 1000 nM. Also, in assay [2] (setting [4]), the EC50 was in the range of 100 to 1000 nM. Turning to `[2H]C([2H])([2H])N(C(=O)[C@H](CC1CC1)NC(=O)c1ccc(F)cc1)[C@@H](CC1CC1)C(=O)N1C[C@]2(C[C@H]1C#N)C(=O)Nc1ccccc12` [Example 140], the IC50 in assay [1] (setting [3]) was less than 100 nM. The EC50 in assay [2] (setting [4]) is less than 100 nM. Regarding `Cc1cccc(C)c1C(=O)N[C@@H](C)C(=O)N(C)[C@@H](CC(C)C)C(=O)N1C[C@]2(C[C@H]1C#N)C(=O)Nc1ccccc12` [Example 148], the IC50 in assay [1] (setting [3]) was less than 100 nM. Moreover, the EC50 in assay [2] (setting [4]) was less than 100 nM. Turning to `CC(C)C[C@@H](C(=O)N1C[C@]2(C[C@H]1C#N)C(=O)Nc1ccccc12)N(C)C(=O)[C@H](C)NC(=O)C(F)(F)F` [Example 135], the EC50 in assay [2] (setting [4]) is less than 100 nM. On to `CC(C)C[C@@H](C(=O)N1C[C@]2(C[C@H]1C#N)C(=O)Nc1ccccc12)N(C)C(=O)[C@H](C)NC(=O)c1ccccc1-c1ccc(C(F)(F)F)cc1` [Example 150], for which, in assay [1] (setting [3]), the IC50 was less than 100 nM. In addition, the EC50 in assay [2] (setting [4]) fell in the range of 100 to 1000 nM. Taken in the same sequence, the figures for `CC(C)C[C@@H](C(=O)N1C[C@]2(C[C@H]1C#N)C(=O)Nc1ccccc12)N(C)C(=O)[C@@H]1CC[C@H](c2ccccc2)N1` [Example 159] were less than 100 nM and 100 to 1000 nM. `CC(C)[C@H](NS(=O)(=O)c1ccc(F)cc1)C(=O)N(C)[C@@H](CC(C)(C)C)C(=O)N1C[C@]2(C[C@H]1C#N)C(=O)Nc1ccccc12` [Example 111] showed an IC50 in assay [1] (setting [5]) of less than 100 nM. Besides, the EC50 in assay [2] lay in the range of 100 to 1000 nM. On to `CC(C)C[C@@H](C(=O)N1C[C@]2(C[C@H]1C#N)C(=O)Nc1ccccc12)N(C)C(=O)[C@H](C)NC(=O)C(F)(F)C(F)(F)F` [Example 136], for which the IC50 in assay [1] (setting [3]) was less than 100 nM. Besides, in assay [2] (setting [4]), the EC50 was less than 100 nM.

Take `C[C@H](NC(=O)c1ccc(F)cc1F)C(=O)N(C)[C@@H](CC(C)(C)C)C(=O)N1C[C@]2(C[C@H]1C#N)C(=O)Nc1ccccc12` [Example 154]: the IC50 in assay [1] (setting [3]) was less than 100 nM. In addition, in assay [2] (setting [4]), the EC50 is less than 100 nM. With `CC(C)C[C@H]1C(=O)N2C[C@]3(C[C@H]2C#N)C(=O)Nc2ccc(cc23)CCCCC[C@H](NC(=O)OC(C)(C)C)C(=O)N1C` [Example 373], the IC50 in assay [1] (setting [3]) was less than 100 nM. Moreover, the EC50 in assay [2] (setting [4]) lay within 100 to 1000 nM. Take `CC(C)OC(=O)N[C@H](C(=O)N(C)[C@@H](Cc1ccccc1)C(=O)N1C[C@]2(C[C@H]1C#N)C(=O)Nc1ccccc12)C(C)(C)C` [Example 31]: the EC50 in assay [2] (setting [4]) is less than 100 nM. In the case of `CC(C)C[C@@H](C(=O)N1C[C@]2(C[C@H]1C#N)C(=O)Nc1ccccc12)N(C)C(=O)[C@H](C)NC(=O)c1ccc(F)c(F)c1` [Example 165], the IC50 in assay [1] (setting [3]) is less than 100 nM. For the same compound, the EC50 in assay [2] (setting [4]) was less than 100 nM. Regarding `CC(C)C[C@@H](C(=O)N1C[C@]2(C[C@H]1C#N)C(=O)Nc1ccccc12)N(C)C(=O)[C@H](C)NC(=O)c1ccc(F)cn1` [Example 164], in assay [1] (setting [3]), the IC50 was less than 100 nM. The EC50 in assay [2] (setting [4]) was less than 100 nM.

Regarding `CC(C)C[C@@H](C(=O)N1C[C@]2(C[C@H]1C#N)C(=O)Nc1ccccc12)N(C)C(=O)[C@@H]1CC[C@@H](c2ccccc2)N1C(C)C` [Example 162], the IC50 in assay [1] (setting [3]) was less than 100 nM. Further, the EC50 in assay [2] (setting [4]) was less than 100 nM. Turning to `C[C@H](NC(=O)C(F)(F)C(F)(F)F)C(=O)N(C)[C@@H](CC(C)(C)C)C(=O)N1C[C@]2(C[C@H]1C#N)C(=O)Nc1ccccc12` [Example 133], in assay [1] (setting [5]), the IC50 is less than 100 nM. In addition, in assay [2] (setting [4]), the EC50 was less than 100 nM. In the case of `CC(C)C[C@@H](C(=O)N1C[C@]2(C[C@H]1C#N)C(=O)Nc1ccccc12)N(C)C(=O)[C@H](C)NC(=O)c1ccc(F)c(-c2ccc(F)cc2)c1` [Example 151], the IC50 in assay [1] (setting [3]) is less than 100 nM. Besides, the EC50 in assay [2] (setting [4]) lay within 100 to 1000 nM. For `CC(C)C[C@@H](C(=O)N1C[C@]2(C[C@H]1C#N)C(=O)Nc1ccccc12)N(C)C(=O)[C@@H]1CCCN1C(C)C` [Example 161] the same measures were less than 100 nM and less than 100 nM. For `Cc1ncc(C(=O)N[C@@H](C)C(=O)N(C)[C@@H](CC(C)C)C(=O)N2C[C@]3(C[C@H]2C#N)C(=O)Nc2ccccc23)s1` [Example 163] the same measures were less than 100 nM and less than 100 nM. The compound `CC(C)(C)C(NC(=O)OCc1ccccc1)C(=O)N1CCC[C@H]1C(=O)N1C[C@]2(C[C@H]1C#N)C(=O)Nc1ccccc12` (some centres unmarked) [Example 55] had an IC50 in assay [1] (setting [5]) of 100 to 1000 nM. For the same compound, the EC50 in assay [2] was more than 1000 nM. For `C[C@@H](C(=O)N(C)[C@@H](CC(C)(C)C)C(=O)N1C[C@]2(C[C@H]1C#N)C(=O)Nc1ccccc12)n1cc(C2CC2)nn1` [Example 157], the IC50 in assay [1] (setting [3]) is less than 100 nM. Also, in assay [2] (setting [4]), the EC50 is less than 100 nM. Regarding `CC(C)C[C@@H](C(=O)N1C[C@]2(C[C@H]1C#N)C(=O)Nc1ccccc12)N(C)C(=O)[C@@H]1CC[C@@H](c2ccccc2)N1` [Example 158], the IC50 in assay [1] (setting [3]) was less than 100 nM. For the same compound, the EC50 in assay [2] (setting [4]) was less than 100 nM. Compound `CC(C)C[C@@H](C(=O)N1C[C@]2(C[C@H]1C#N)C(=O)Nc1ccccc12)N(C)C(=O)[C@H](C)NC(=O)C(F)(F)C(F)(F)C(F)(F)F` [Example 137] displayed an IC50 in assay [1] (setting [5]) of less than 100 nM. In assay [2], the EC50 is less than 100 nM. For `Cc1cc(C(=O)N[C@@H](C)C(=O)N(C)[C@@H](CC(C)C)C(=O)N2C[C@]3(C[C@H]2C#N)C(=O)Nc2ccccc23)no1` [Example 166], the IC50 in assay [1] (setting [3]) is less than 100 nM. In addition, the EC50 in assay [2] (setting [4]) was less than 100 nM. As to `CC(C)[C@@H](NC(=O)OCc1ccccc1)C(=O)N[C@@H](CC(C)(C)C)C(=O)N1C[C@]2(C[C@H]1C#N)C(=O)Nc1ccccc12` [Example 87], the EC50 in assay [2] is more than 1000 nM. `C[C@H](NC(=O)c1ccc(F)c(Cl)c1)C(=O)N(C)[C@@H](CC(C)(C)C)C(=O)N1C[C@]2(C[C@H]1C#N)C(=O)Nc1ccccc12` [Example 155]: the IC50 in assay [1] (setting [3]) is less than 100 nM. The EC50 in assay [2] (setting [4]) was less than 100 nM.

For the compound `CC(C)C[C@@H](C(=O)N1C[C@]2(C[C@H]1C#N)C(=O)Nc1ccccc12)N(C)C(=O)[C@@H]1CCCN1C` [Example 160], the IC50 in assay [1] (setting [3]) was less than 100 nM. In addition, in assay [2] (setting [4]), the EC50 was less than 100 nM. In the case of `CC(C)C[C@@H](C(=O)N1C[C@]2(C[C@H]1C#N)C(=O)Nc1ccccc12)N(C)C(=O)[C@H](C)NC(=O)c1cccc(-c2ccc(F)cc2F)c1` [Example 146], in assay [1] (setting [3]), the IC50 is less than 100 nM. On the same count and under the same terms, with `CC(C)(C)C[C@H](NC(=O)[C@H](CC1CC1)NC(=O)c1cc(F)c2nn(C3CC3)cc2c1)C(=O)N1C[C@]2(C[C@H]1C#N)C(=O)Nc1ccccc12` [Example 305] the figure was less than 100 nM. Take `CCN1[C@H](C(=O)N(C)[C@@H](CC(C)C)C(=O)N2C[C@]3(C[C@H]2C#N)C(=O)Nc2ccccc23)CCC1(C)C` [Example 240]: the IC50 in assay [1] (setting [3]) is less than 100 nM. As for `C[C@H](NC(=O)c1ccc(F)c(F)c1)C(=O)N(C)[C@@H](CC(C)(C)C)C(=O)N1C[C@]2(C[C@H]1C#N)C(=O)Nc1ccccc12` [Example 156], in assay [1] (setting [3]), the IC50 is less than 100 nM. Also, the EC50 in assay [2] (setting [4]) was less than 100 nM. As for `C[C@H](NC(=O)C(F)(F)F)C(=O)N(C)[C@@H](Cc1ccccc1)C(=O)N1C[C@]2(C[C@H]1C#N)C(=O)Nc1ccccc12` [Example 267], the IC50 in assay [1] (setting [3]) is less than 100 nM.
